Data as given in patent publication US8445457B2, “Oral pharmaceutical solutions containing telbivudine” (Novartis AG, priority 2007, dated 2013).

Experiment: Pre-formulation telbivudine stability versus pH at elevated temperature
Format: physicochemical
Details: investigated pH 2-9, 50° C., from assay and thymine content
Description: During pre-formulation, telbivudine stability is investigated within a range of pH from 2-9, at elevated temperature 50° C. […] The pH of the oral solution is a highly relevant parameter, due to the influence pH on the retardation of microbial growth in the solution during storage.

Cc1cn([C@@H]2C[C@@H](O)[C@H](CO)O2)c(=O)[nH]c1=O [telbivudine, β-L-thymidine/2′-deoxy-L-thymidine]
pH range optimal for drug substance stability: 3-9
